Measured values published in patent US7993824B2, “Compositions and methods for determining the susceptibility of a pathogenic virus to protease inhibitors” (Monogram Biosciences, Inc., priority 2002, dated 2011).

Key:
[1] = tested on: HIV-1 clones containing I50V; assay: PhenoSense assay on protease clones (I50V; I50V+L90M; I50V+N88S) isolated from resistance test vector pools of one patient sample; format: cell-based; details: for mean fold change (FC), reduction in susceptibility: clones with I50V only, or I50V plus L90M
Text: Drug names are abbreviated as follows: APV, amprenavir; IDV, indinavir; LPV, lopinavir; NFV, nelfinavir; RTV, ritonavir; SQV, saquinavir; ATV, atazanavir (BMS 232632).
(§1) A resistance test vector (“RTV”) can then be constructed by incorporating the amplified viral gene sequences into a replication defective viral vector by using any method known in the art of incorporating gene sequences into a vector. In one embodiment, restrictions enzymes and conventional cloning methods are used. See Sambrook et al., 2001, Molecular Cloning: A Laboratory Manual, Cold Spring Harbor Laboratory, 3rd ed., NY; and Ausubel et al., 1989, Current Protocols in Molecular Biology, Greene Publishing Associates and Wiley Interscience, NY. In a preferred embodiment, ApaI and PinAI restriction enzymes are used. Preferably, the replication defective viral vector is the indicator gene viral vector (“IGVV”). In a preferred embodiment, the viral vector contains a means for detecting replication of the RTV. Preferably, the viral vector contains a luciferase expression cassette.
(§2) The assay can be performed by first co-transfecting host cells with RTV DNA and a plasmid that expresses the envelope proteins of another retrovirus, for example, amphotropic murine leukemia virus (MLV). Following transfection, virus particles can be harvested and used to infect fresh target cells. The completion of a single round of viral replication can be detected by the means for detecting replication contained in the vector. In a preferred embodiment, the completion of a single round of viral replication results in the production of luciferase. Serial concentrations of anti-viral agents can be added at either the transfection step or the infection step.
(§3) Susceptibility to the anti-viral agent can be measured by comparing the replication of the vector in the presence and absence of the anti-viral agent. For example, susceptibility to the anti-viral agent can be measured by comparing the luciferase activity in the presence and absence of the anti-viral agent. Susceptible viruses would produce low levels of luciferase activity in the presence of antiviral agents, whereas viruses with reduced susceptibility would produce higher levels of luciferase activity.
Clones from the population were selected so as to isolate some clones with the N88S mutation and some without it. Resistance test vector pools constructed from the original plasma sample (Petropoulos et al., 2000, Antimicrob Agents Chemother 44:920-8) were transformed into E. Coli, and plasmid DNA from individual colonies was screened in the PhenoSense® assay for […].

[2] = tested on: HIV-1 from the patient sample; assay: PHENOSENSE HIV phenotypic susceptibility assay on patient plasma samples (IC50 fold change vs NL4-3 reference); format: cell-based; details: for fold change in IC50: patient sample with L10I, I13V, E35D, M36I, R41K, I50V, L63P, A71V, N88N/S, L90M in HIV protease, vs NL4-3 reference
Procedure: In a preferred embodiment, the phenotypic analysis is performed using PHENOSENSE™ (ViroLogic Inc., South San Francisco, Calif.). See Petropoulos et al., 2000, Antimicrob. Agents Chemother. 44:920-928; U.S. Pat. Nos. 5,837,464 and 6,242,187. PHENOSENSE™ is a phenotypic assay that achieves the benefits of phenotypic testing and overcomes the drawbacks of previous assays. Because the assay has been automated, PHENOSENSE™ offers higher throughput under controlled conditions. The result is an assay that accurately defines the susceptibility profile of a patient's HIV isolates to all currently available antiretroviral drugs, and delivers results directly to the physician within about 10 to about 15 days of sample receipt. PHENOSENSE™ is accurate and can obtain results with only one round of viral replication, thereby avoiding selection of subpopulations of virus. The results are quantitative, measuring varying degrees of drug susceptibility, and sensitive—the test can be performed on blood specimens with a viral load of about 500 copies/mL and can detect minority populations of some drug-resistant virus at concentrations of 10% or less of total viral population. Furthermore, the results are reproducible and can vary by less than about 1.4-2.5 fold, depending on the drug, in about 95% of the assays performed.
PHENOSENSE™ can be used with nucleic acids from amplified viral gene sequences. As discussed in Section 5.4.1, the sample containing the virus may be a sample from a human or an animal infected with the virus or a sample from a culture of viral cells. In one embodiment, the viral sample comprises a genetically modified laboratory strain.
as §1, §2, §3
The phenotypic assay was conducted using the PHENOSENSE™ (Virologic, South San Francisco, Calif.) HIV assay (Petropoulos et al., 2000, Antimicrob. Agents Chemother. 44:920-928; U.S. Pat. Nos. 5,837,464 and 6,242,187). […]

HIV = details: patients using amprenavir as their first PI; as low as; cited from earlier work
[3] = I50V+N88S clones vs I50V clones

SMILES | fold change in IC50 [2] | mean fold change (FC), reduction in susceptibility [1] | further results
CC(C)(C)NC(=O)[C@@H]1C[C@@H]2CCCC[C@@H]2CN1C[C@@H](O)[C@H](Cc1ccccc1)NC(=O)[C@H](CC(N)=O)NC(=O)c1ccc2ccccc2n1 [saquinavir] | 3.6 fold |  | increase in FC with L90M ([1]; I50V plus L90M clones vs I50V only clones): 1.8 fold
Cc1cccc(C)c1OCC(=O)N[C@@H](Cc1ccccc1)[C@@H](O)C[C@H](Cc1ccccc1)NC(=O)[C@H](C(C)C)N1CCCNC1=O [lopinavir] | 3.3 fold | 7-9 FC | fold decrease in IC50 in the presence of N88S (susceptibility increased) [1, 3]: 1.7 fold
CC(C)(C)NC(=O)[C@@H]1CN(Cc2cccnc2)CCN1C[C@@H](O)C[C@@H](Cc1ccccc1)C(=O)N[C@H]1c2ccccc2C[C@H]1O [indinavir] | 1.4 fold |  | 
COC(=O)N[C@H](C(=O)N[C@@H](Cc1ccccc1)[C@@H](O)CN(Cc1ccc(-c2ccccn2)cc1)NC(=O)[C@@H](NC(=O)OC)C(C)(C)C)C(C)(C)C [atazanavir] |  |  | fold increase in IC50 in the presence of N88S (susceptibility decreased) [1, 3]: 2.3 fold
CC(C)CN(C[C@@H](O)[C@H](Cc1ccccc1)NC(=O)O[C@H]1CCOC1)S(=O)(=O)c1ccc(N)cc1 [amprenavir] | 4.1 fold | 13-17 FC | fold change for a virus containing I50V, but not N88S ([1]; FIG. 7 bar 1 for APV): about 17 fold; fold change when the virus contained N88S in addition to I50V ([1]; FIG. 7 bar 2 for APV, wild type level): 1.2 FC; factor by which susceptibility was increased when N88S was present in combination with I50V [1, 3]: 14.5; reductions in susceptibility in patients who experienced viral load rebound (HIV): 2-3 fold; 99th percentile for the distribution of FC in genotypically wild-type viruses ([2]; genotypically wild-type viruses, PhenoSense Assay): 2.1 fold
Cc1c(O)cccc1C(=O)N[C@@H](CSc1ccccc1)[C@H](O)CN1C[C@H]2CCCC[C@H]2C[C@H]1C(=O)NC(C)(C)C [nelfinavir] | 5.3 fold | 7-10 FC | fold increase in IC50 in the presence of N88S (susceptibility decreased) [1, 3]: 2.1 fold
CC(C)c1nc(CN(C)C(=O)N[C@H](C(=O)N[C@@H](Cc2ccccc2)C[C@H](O)[C@H](Cc2ccccc2)NC(=O)OCc2cncs2)C(C)C)cs1 [ritonavir] | 11 fold | 12-20 FC | fold decrease in IC50 in the presence of N88S (susceptibility increased) [1, 3]: 1.4 fold
